# Test results: article PMC6192554, “In vitro toxicity and efficacy of verdinexor, an exportin 1 inhibitor, on opportunistic viruses affecting immunocompromised individuals” (PLoS ONE, 2018)
# Assays:
# [1] = tested on: 104 principal receptor/ligand interactions; assay: Off-target panel of in vitro protein binding assays; conditions: 10 μM; 104 receptor/ligand interactions
# Protocol: (§1) Serum concentrations with Verdinexor have been previously established in in vivo models of influenza in both mice and ferrets. In mice receiving 10mg/kg and ferrets receiving 5mg/kg, max plasma concentration of verdinexor was approximately 1200 (ng/mL) however, the half life in mice was extended (6 hours) as compared to that of ferrets (2 hours). Serum protein binding of verdinexor in humans is 98.4%. […] A Phase 1, Randomized, Double-Blind, Placebo-Controlled, Sequential, Dose-Escalating Trial to Evaluate the Safety and Tolerability of Oral Verdinexor (KPT-335) in Healthy Adult Subjects was conducted in Nucleus Network, Melbourne, Victoria, Australia [ClinicalTrials.gov: NCT02431364]. No study results are currently posted for this study. Furthermore, a clinical study was submitted to the USA FDA on IND#122718. This phase 1a, Randomized, Double-Blind, Placebo-Controlled, Sequential, Dose-Escalating Trial of Single and Multi-Dose oral verdinexor (KPT-335) to Evaluate the Safety and Tolerability in Healthy Elderly Volunteers is yet to be initiated and recruit subjects.
# Rev-GFP fusion = tested on: Rev-GFP fusion; set-up: method as in PMID 3025240; conditions: read-out: EC50, forced nuclear retention of Rev-GFP fusion; cited from earlier work
# [2] = mouse, in vivo, 10 mg/kg; cited from earlier work
# [3] = Cytotoxicity in HFF cells, concurrent with HCMV assays; type: cell-based; conditions: human, human foreskin fibroblast cells (HFF)
# Protocol: Cytotoxicity assays: Concurrent assessment of cytotoxicity was also performed for each study in the same cell line and with the same compound exposure.
# For HCMV cytotoxicity assay was determined via neutral red uptake assay and was conducted as reported previously in HFF cells. Optical densities were determined at 550nm.
# Yield reduction assays for HCMV were performed on monolayers of HFF cells prepared in 96-well plates and incubated at 37°C for 1d to allow the cells to reach confluency. Media was then aspirated from the wells were infected at a high multiplicity of infection (MOI). At 1h following infection, the inocula were removed and the monolayers rinsed with fresh media. Compounds were then diluted in assay media consisting of MEM with Earl’s salts supplemented with 2% FBS, L-glutamine, penicillin, and gentamycin. Solutions ranging from 0.0032–10μM in primary assay and 0.032–100μM in secondary assay were added to the wells and the plates were incubated for various times, depending on the virus used and represents the length of a single replication cycle for the virus. A duplicate set of dilutions were also performed but remained uninfected to serve as a cytotoxicity control and received equal compound exposure. Supernatants from each of the infected wells were subsequently titered in a TCID50 assay to quantify the progeny virus. […]
# Human CMV strain AD169 = assay: HCMV yield reduction assay in HFF cells; type: cell-based, human cytomegalovirus; conditions: Human betaherpesvirus 5, AD169, HFF
# Protocol: Human CMV strain AD169 was obtained from ATCC and assayed in human foreskin fibroblast cells (HFF). HFF cells were prepared at the University of Alabama at Birmingham (UAB) tissue procurement facility with IRB approval as previously described. Yield reduction assays for HCMV were performed on monolayers of HFF cells prepared in 96-well plates and incubated at 37°C for 1d to allow the cells to reach confluency. Media was then aspirated from the wells were infected at a high multiplicity of infection (MOI). At 1h following infection, the inocula were removed and the monolayers rinsed with fresh media. Compounds were then diluted in assay media consisting of MEM with Earl’s salts supplemented with 2% FBS, L-glutamine, penicillin, and gentamycin. Solutions ranging from 0.0032–10μM in primary assay and 0.032–100μM in secondary assay were added to the wells and the plates were incubated for various times, depending on the virus used and represents the length of a single replication cycle for the virus. A duplicate set of dilutions were also performed but remained uninfected to serve as a cytotoxicity control and received equal compound exposure. Supernatants from each of the infected wells were subsequently titered in a TCID50 assay to quantify the progeny virus.
# Serum protein binding = type: in vitro ADME; conditions: human, humans
# Protocol: as §1
# [4] = tested on: BK polyomavirus (BKPyV) Gardner strain; assay: BKPyV qPCR genome copy assay in HFF cells; type: cell-based; conditions: Betapolyomavirus hominis
# Protocol: John Cunningham polyomavirus (JCPyV) strains MAD-1 and MAD-4 and BK polyomavirus (BKPyV) Gardner strain were obtained from ATCC. COS-7 cells were obtained from ATCC and maintained according to ATCC-supplied protocols.
# Primary assays for BKPyV were performed in 384-well plates containing monolayers of HFF cells. Compound dilutions ranging from 0.0032–100μM were prepared in plates containing cells which were subsequently infected at an MOI of 0.001. After a 7d incubation, total DNA was prepared using Extracta and genome copy number was quantified by qPCR using the primers and probe listed in S1 Table [18]. Plasmid pMP526 served as the DNA standard for quantification purposes. Compounds were confirmed in a similar assay in 96-well plates according to established laboratory protocols with the compounds added 1h […] to identify compounds that inhibit early stages of replication including adsorption and entry. Genome copy number was determined by methods described above.
# Human adenovirus type 5 = assay: Adenovirus virus yield (TCID50) assay in HeLa cells; type: cell-based; conditions: Human mastadenovirus C
# Protocol: Human adenovirus type 5 was obtained from ATCC and cultured in HeLa cells under standard conditions.
# Prior to assessing cell viability using MTS, supernatants were collected from plates and titrated to determine virus yield. Serial dilutions of supernatants were incubated on HeLa cells for 3 days. Following incubation, wells were visually scored for infection and TCID50, EC50, CC50 and SI were calculated for each sample.
# histamine H1 receptor [5] = molecular target: T1, histamine H1 receptor (Homo sapiens, UniProt P35367); assay: Histamine H1 receptor functional activity assay, antagonist; type: biochemical; conditions: Study No. KS-1017, read-out: IC50 (50% inhibitory concentration)
# HIV = tested on: HIV; set-up: method as in PMID 3025240; conditions: PBMCs from healthy donors; read-out: EC50, anti-HIV activity; cited from earlier work
# [6] = Cytotoxicity in BCBL-1 cells (CellTiter-Glo); type: cell-based; conditions: human
# Protocol: Cytotoxicity assays: Concurrent assessment of cytotoxicity was also performed for each study in the same cell line and with the same compound exposure. For KSHV, cell viability was assessed with the CellTiter-Glo Luminescent Cell Viability Assay (Promega) using manufacturer’s protocol. Luminescence was quantified on a luminometer. Standard methods were used to calculate the 50% cytotoxic level (CC50).
# histamine H1 receptor [7] = molecular target: T1, histamine H1 receptor; assay: Histamine H1 receptor functional activity assay, agonist; type: biochemical; conditions: Study No. KS-1017, read-out: IC50 (50% inhibitory concentration)
# T1 sequence (P35367 whole entry, species assumed): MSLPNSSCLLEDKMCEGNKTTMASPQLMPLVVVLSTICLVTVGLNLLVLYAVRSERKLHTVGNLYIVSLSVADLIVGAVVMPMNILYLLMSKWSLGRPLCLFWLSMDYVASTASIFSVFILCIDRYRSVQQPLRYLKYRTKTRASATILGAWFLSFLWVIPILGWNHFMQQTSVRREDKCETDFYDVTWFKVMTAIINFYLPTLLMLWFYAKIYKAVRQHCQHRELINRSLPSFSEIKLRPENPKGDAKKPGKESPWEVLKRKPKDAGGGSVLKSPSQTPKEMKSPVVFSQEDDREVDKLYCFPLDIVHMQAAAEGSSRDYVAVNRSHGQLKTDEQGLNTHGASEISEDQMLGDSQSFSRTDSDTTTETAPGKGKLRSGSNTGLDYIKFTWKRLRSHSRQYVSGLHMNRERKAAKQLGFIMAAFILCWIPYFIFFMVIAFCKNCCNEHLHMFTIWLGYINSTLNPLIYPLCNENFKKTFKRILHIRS
smiles,measurement,setting,value
"O=C(C=Cn1cnc(-c2cc(C(F)(F)F)cc(C(F)(F)F)c2)n1)NNc1ccccn1 (stereo in doubt) [verdinexor, (E)-3-[3-[3,5-bis(trifluoromethyl)phenyl]-1,2,4-triazol-1-yl]-N'-pyridin-2-ylprop-2-enehydrazide]",effect on off-target panel,[1],"none of the enzymes, receptors, transporters, kinases, or cysteine proteases were significantly affected"
same,EC50,Rev-GFP fusion,0.16 µM
same,half life,[2],6 h
same,CC50,[3]; HCMV primary screen,1.76 µM
same,CC50,[3]; HCMV secondary screen,73.3 µM
same,EC50,Human CMV strain AD169; primary screen,0.19 µM
same,EC50,Human CMV strain AD169; secondary screen,2.5 µM
same,fraction unbound,Serum protein binding,0.016
same,EC50,[4]; primary screen,7.62 µM
same,EC50,"[4]; secondary screen, compound added 1h post-infection",2.29 µM
same,EC50,"Human adenovirus type 5; Ad5, primary screen",> 0.18 µM
same,EC50,"Human adenovirus type 5; Ad5, secondary screen",< 0.03 µM
same,IC50,histamine H1 receptor [5],> 10 µM
same,EC50,HIV,0.116 ± 0.054 µM
same,CC50,[6]; KSHV primary screen,2.76 µM
same,CC50,[6]; KSHV secondary screen,1.4 µM
same,IC50,histamine H1 receptor [7],> 10 µM
